Results: ChEMBL document CHEMBL4350990, “Benzensulfonamides bearing spyrohydantoin moieties act as potent inhibitors of human carbonic anhydrases II and VII and show neuropathic pain attenuating effects” (Eur J Med Chem, 2019)
Active and inactive are the calls of the source. The rule behind the calls is not given here.

Assays:
Carbonic anhydrase 13 = Carbonic anhydrase 13 (Homo sapiens, UniProt Q8N1Q1); assay: Inhibition of human carbonic anhydrase 13 incubated for 15 mins prior to testing by stopped-flow CO2 hydration assay
Chain of Carbonic anhydrase 13 (Q8N1Q1 whole entry): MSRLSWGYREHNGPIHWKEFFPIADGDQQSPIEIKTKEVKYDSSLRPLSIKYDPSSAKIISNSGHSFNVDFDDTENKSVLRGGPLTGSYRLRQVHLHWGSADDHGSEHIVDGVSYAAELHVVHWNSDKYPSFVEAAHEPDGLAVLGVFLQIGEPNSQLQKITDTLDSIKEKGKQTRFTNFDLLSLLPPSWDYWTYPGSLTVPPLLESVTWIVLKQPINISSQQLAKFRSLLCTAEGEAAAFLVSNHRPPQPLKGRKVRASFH

Carbonic anhydrase 12 = Carbonic anhydrase 12 (Homo sapiens, UniProt O43570); assay: Inhibition of human carbonic anhydrase 12 incubated for 15 mins prior to testing by stopped-flow CO2 hydration assay
Chain of Carbonic anhydrase 12 (O43570 whole entry): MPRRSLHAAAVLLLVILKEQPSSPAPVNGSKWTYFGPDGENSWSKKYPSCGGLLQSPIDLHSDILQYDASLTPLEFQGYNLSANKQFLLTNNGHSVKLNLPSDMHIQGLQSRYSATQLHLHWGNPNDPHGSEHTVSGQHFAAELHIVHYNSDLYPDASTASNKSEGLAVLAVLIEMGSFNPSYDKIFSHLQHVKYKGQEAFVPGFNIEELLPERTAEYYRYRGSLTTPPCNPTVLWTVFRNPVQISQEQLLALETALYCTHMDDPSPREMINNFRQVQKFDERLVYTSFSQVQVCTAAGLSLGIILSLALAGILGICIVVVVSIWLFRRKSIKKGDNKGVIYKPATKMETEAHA

Carbonic anhydrase 9 = Carbonic anhydrase 9 (Homo sapiens, UniProt Q16790); assay: Inhibition of human carbonic anhydrase 9 incubated for 15 mins prior to testing by stopped-flow CO2 hydration assay
Carbonic anhydrase 2 = Carbonic anhydrase 2 (Homo sapiens, UniProt P00918); assay: Inhibition of human carbonic anhydrase 2 incubated for 15 mins prior to testing by stopped-flow CO2 hydration assay
Mus musculus [1] = assay: Analgesic activity in oxaliplatin-induced neuropathic pain CD-1 albino mouse model assessed as decrease in pain-related behaviour measured as licking latency at 100 mg/kg, po treated on day 15 post oxaliplatin treatment and measured after 45 mins by cold plate test; type: functional, organism-based
Carbonic anhydrase 7 = Carbonic anhydrase 7 (Homo sapiens, UniProt P43166); assay: Inhibition of human carbonic anhydrase 7 incubated for 15 mins prior to testing by stopped-flow CO2 hydration assay
Chain of Carbonic anhydrase 7 (P43166 whole entry): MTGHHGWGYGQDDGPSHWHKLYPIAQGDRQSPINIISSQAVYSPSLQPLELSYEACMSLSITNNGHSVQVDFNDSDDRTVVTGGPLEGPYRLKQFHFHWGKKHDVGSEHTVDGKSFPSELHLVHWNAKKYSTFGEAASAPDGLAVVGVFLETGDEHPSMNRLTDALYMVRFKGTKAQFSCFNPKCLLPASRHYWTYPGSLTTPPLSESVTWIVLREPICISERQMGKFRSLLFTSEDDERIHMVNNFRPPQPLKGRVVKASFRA

Carbonic anhydrase 1 = Carbonic anhydrase 1 (Homo sapiens, UniProt P00915); assay: Inhibition of human carbonic anhydrase 1 incubated for 15 mins prior to testing by stopped-flow CO2 hydration assay
Chain of Carbonic anhydrase 1 (P00915 whole entry): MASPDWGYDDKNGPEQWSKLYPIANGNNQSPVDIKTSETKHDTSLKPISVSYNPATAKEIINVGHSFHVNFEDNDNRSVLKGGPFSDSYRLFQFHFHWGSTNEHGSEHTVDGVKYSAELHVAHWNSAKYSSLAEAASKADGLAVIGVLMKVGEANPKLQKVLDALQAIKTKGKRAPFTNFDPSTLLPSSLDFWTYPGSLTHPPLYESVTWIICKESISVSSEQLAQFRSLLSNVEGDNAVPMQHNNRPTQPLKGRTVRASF

Carbonic anhydrase 3 = Carbonic anhydrase 3 (Homo sapiens, UniProt P07451); assay: Inhibition of human carbonic anhydrase 3 incubated for 15 mins prior to testing by stopped-flow CO2 hydration assay
Chain of Carbonic anhydrase 3 (P07451 whole entry): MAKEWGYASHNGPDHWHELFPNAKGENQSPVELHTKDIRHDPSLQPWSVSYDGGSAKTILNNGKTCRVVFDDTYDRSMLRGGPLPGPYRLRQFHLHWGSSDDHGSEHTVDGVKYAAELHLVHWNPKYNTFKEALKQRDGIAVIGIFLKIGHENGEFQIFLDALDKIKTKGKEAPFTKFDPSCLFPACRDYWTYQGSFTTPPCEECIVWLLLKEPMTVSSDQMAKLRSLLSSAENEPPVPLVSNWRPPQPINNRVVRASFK

Carbonic anhydrase 6 = Carbonic anhydrase 6 (Homo sapiens, UniProt P23280); assay: Inhibition of human carbonic anhydrase 6 incubated for 15 mins prior to testing by stopped-flow CO2 hydration assay
Chain of Carbonic anhydrase 6 (P23280 whole entry): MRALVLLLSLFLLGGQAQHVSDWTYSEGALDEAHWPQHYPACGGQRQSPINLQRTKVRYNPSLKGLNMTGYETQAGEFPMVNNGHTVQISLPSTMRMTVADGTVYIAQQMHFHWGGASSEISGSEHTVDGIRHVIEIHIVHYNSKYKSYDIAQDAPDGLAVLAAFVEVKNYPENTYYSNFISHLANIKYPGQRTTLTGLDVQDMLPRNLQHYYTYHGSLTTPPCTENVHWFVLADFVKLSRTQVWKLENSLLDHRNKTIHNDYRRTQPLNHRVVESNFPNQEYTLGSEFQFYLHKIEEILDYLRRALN

[2] = target: Carbonic anhydrase 5B, mitochondrial (Homo sapiens, UniProt Q9Y2D0); assay: Inhibition of human carbonic anhydrase 5B incubated for 15 mins prior to testing by stopped-flow CO2 hydration assay
Chain of Carbonic anhydrase 5B, mitochondrial (Q9Y2D0 whole entry): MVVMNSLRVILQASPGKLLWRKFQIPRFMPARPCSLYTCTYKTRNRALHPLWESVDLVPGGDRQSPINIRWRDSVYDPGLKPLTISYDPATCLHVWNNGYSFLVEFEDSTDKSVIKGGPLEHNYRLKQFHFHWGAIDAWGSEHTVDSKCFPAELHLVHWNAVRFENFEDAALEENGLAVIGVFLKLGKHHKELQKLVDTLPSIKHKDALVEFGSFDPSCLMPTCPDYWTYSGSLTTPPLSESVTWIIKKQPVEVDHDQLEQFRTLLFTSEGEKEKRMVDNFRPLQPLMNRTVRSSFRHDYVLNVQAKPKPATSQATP

[3] = target: Carbonic anhydrase 5A, mitochondrial (Homo sapiens, UniProt P35218); assay: Inhibition of human carbonic anhydrase 5A incubated for 15 mins prior to testing by stopped-flow CO2 hydration assay
Chain of Carbonic anhydrase 5A, mitochondrial (P35218 whole entry): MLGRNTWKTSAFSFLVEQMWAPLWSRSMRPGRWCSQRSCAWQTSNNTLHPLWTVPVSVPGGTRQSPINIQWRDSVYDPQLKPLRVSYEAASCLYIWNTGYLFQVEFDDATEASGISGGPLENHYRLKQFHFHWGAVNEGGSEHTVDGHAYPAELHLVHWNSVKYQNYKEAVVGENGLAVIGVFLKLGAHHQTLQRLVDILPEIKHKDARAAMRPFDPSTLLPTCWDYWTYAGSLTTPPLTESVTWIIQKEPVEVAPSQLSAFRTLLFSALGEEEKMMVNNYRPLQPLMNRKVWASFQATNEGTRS

Carbonic anhydrase 4 = Carbonic anhydrase 4 (Homo sapiens, UniProt P22748); assay: Inhibition of human carbonic anhydrase 4 incubated for 15 mins prior to testing by stopped-flow CO2 hydration assay
Chain of Carbonic anhydrase 4 (P22748 whole entry): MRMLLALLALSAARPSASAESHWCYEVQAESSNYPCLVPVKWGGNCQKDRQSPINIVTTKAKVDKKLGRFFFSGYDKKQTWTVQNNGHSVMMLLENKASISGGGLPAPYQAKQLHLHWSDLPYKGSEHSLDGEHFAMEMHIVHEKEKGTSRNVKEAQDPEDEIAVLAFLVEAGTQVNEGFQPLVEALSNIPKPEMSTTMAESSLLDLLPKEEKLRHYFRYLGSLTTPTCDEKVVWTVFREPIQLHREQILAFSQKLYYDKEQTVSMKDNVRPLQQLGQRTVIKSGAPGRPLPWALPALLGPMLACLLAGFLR

Mus musculus [4] = assay: Analgesic activity in orally dosed oxaliplatin-induced neuropathic pain CD-1 albino mouse model assessed as decrease in pain-related behaviour measured as licking latency treated on day 15 post oxaliplatin treatment by cold plate test; type: functional, organism-based
Mus musculus [5] = assay: Analgesic activity in oxaliplatin-induced neuropathic pain CD-1 albino mouse model assessed as decrease in pain-related behaviour measured as licking latency at 100 mg/kg, po treated on day 15 post oxaliplatin treatment and measured after 45 to 60 mins by cold plate test; type: functional, organism-based
Mus musculus [6] = assay: Analgesic activity in oxaliplatin-induced neuropathic pain CD-1 albino mouse model assessed as licking latency at 30 to 100 mg/kg, po treated on day 15 post oxaliplatin treatment by cold plate test; type: functional, organism-based

| Ki (Carbonic anhydrase 13) [nM] | Ki (Carbonic anhydrase 12) [nM] | Ki (Carbonic anhydrase 9) [nM] | Ki (Carbonic anhydrase 2) [nM] | Ki (Carbonic anhydrase 7) [nM] | Ki (Carbonic anhydrase 1) [nM] | Ki (Carbonic anhydrase 3) [nM] | Ki (Carbonic anhydrase 6) [nM] | Ki [2] [nM] | Ki [3] [nM] | Ki (Carbonic anhydrase 4) [nM] | Compound | Activity (Mus musculus [1]) | Activity (Mus musculus [4]) | Activity (Mus musculus [5]) | Activity (Mus musculus [6]) |
| --- | --- | --- | --- | --- | --- | --- | --- | --- | --- | --- | --- | --- | --- | --- | --- |
| 767 | 8.6 | 17.8 | 0.7 | 4.7 | 62.3 | – | – | – | – | – | CC1CCCC2(C1)NC(=O)N(CC(=O)Nc1ccc([Se]Cc3ccc(S(N)(=O)=O)cc3)cc1)C2=O (stereo not given) | Active | – | – | – |
| > 10000 | 33.3 | 229 | 8.3 | 4.4 | 853 | – | – | – | – | – | CC1CCCC2(C1)NC(=O)N(CC(=O)NCc1ccc(S(N)(=O)=O)cc1)C2=O (stereo not given) | – | – | – | – |
| 2170 | 9.6 | 93 | 1.5 | 3.6 | 2770 | – | – | – | – | – | NS(=O)(=O)c1ccc(CNC(=O)CN2C(=O)NC3(CCCC3)C2=O)cc1 | – | – | – | – |
| > 10000 | 62.3 | 3.5 | 47.1 | 3.7 | 649 | – | – | – | – | – | NS(=O)(=O)c1ccc(CNC(=O)CN2C(=O)NC3(CCCCCC3)C2=O)cc1 | – | – | – | – |
| > 10000 | 83.4 | 477 | 0.7 | 3 | 306 | > 10000 | > 10000 | > 10000 | 8680 | 7190 | CC1CCCC2(C1)NC(=O)N(CC(=O)NCCc1ccc(S(N)(=O)=O)cc1)C2=O (stereo not given) | – | – | – | – |
| > 10000 | 42.8 | 4.3 | 1.2 | 0.8 | 237 | – | – | – | – | – | NS(=O)(=O)c1ccc(NC(=O)CN2C(=O)NC3(CCCCCC3)C2=O)cc1 | – | – | – | – |
| 88.4 | 49.4 | 6.4 | 22.8 | 4.7 | 384 | – | – | – | – | – | NS(=O)(=O)c1ccc(C[Se]c2ccc(NC(=O)CN3C(=O)NC4(CCCCCC4)C3=O)cc2)cc1 | Active | – | – | – |
| > 10000 | 728 | 105 | 20.7 | 5.4 | 470 | – | – | – | – | – | NS(=O)(=O)c1ccc(CNC(=O)CN2C(=O)NC3(CCCCC3)C2=O)cc1 | – | – | – | – |
| > 10000 | 62.9 | 33.1 | 0.71 | 5.1 | 491 | > 10000 | > 10000 | > 10000 | 6180 | 6490 | NS(=O)(=O)c1ccc(CCNC(=O)CN2C(=O)NC3(CCCCCC3)C2=O)cc1 | – | – | – | – |
| > 10000 | 6.2 | 122 | 6.9 | 4.7 | 6330 | > 10000 | > 10000 | > 10000 | 3940 | 9660 | NS(=O)(=O)c1ccc(CCNC(=O)CN2C(=O)NC3(CCCC3)C2=O)cc1 | – | – | – | – |
| 7410 | 86.6 | 76.7 | 7.1 | 6.9 | 626 | > 10000 | > 10000 | 7320 | 534 | 8010 | NS(=O)(=O)c1ccc(CCNC(=O)CN2C(=O)NC3(CCCCC3)C2=O)cc1 | – | – | – | – |
| > 10000 | 53.7 | 11.9 | 0.7 | 0.8 | 141 | – | – | – | – | – | NS(=O)(=O)c1ccc(NC(=O)CN2C(=O)NC3(CCCC3)C2=O)cc1 | – | Dose-dependent effect | Active | – |
| 809 | 46.6 | 3.3 | 3.1 | 1.3 | 7.5 | – | – | – | – | – | NS(=O)(=O)c1ccc(NC(=O)CN2C(=O)NC3(CCCCC3)C2=O)cc1 | – | – | – | inactive |
| 5780 | 39.7 | 2.6 | 0.8 | 1.5 | 80.3 | – | – | – | – | – | CC1CCCC2(C1)NC(=O)N(CC(=O)Nc1ccc(S(N)(=O)=O)cc1)C2=O (stereo not given) | – | – | – | – |

| Compound | Ki (Carbonic anhydrase 13) [nM] | Ki (Carbonic anhydrase 12) [nM] | Ki (Carbonic anhydrase 9) [nM] | Ki (Carbonic anhydrase 2) [nM] | Ki (Carbonic anhydrase 7) [nM] | Ki (Carbonic anhydrase 1) [nM] | Ki (Carbonic anhydrase 3) [nM] | Ki (Carbonic anhydrase 6) [nM] | Ki [2] [nM] | Ki [3] [nM] | Ki (Carbonic anhydrase 4) [nM] | Activity (Mus musculus [1]) | Activity (Mus musculus [4]) | Activity (Mus musculus [5]) | Activity (Mus musculus [6]) |
| --- | --- | --- | --- | --- | --- | --- | --- | --- | --- | --- | --- | --- | --- | --- | --- |
| NS(=O)(=O)c1ccc(C[Se]c2ccc(NC(=O)CN3C(=O)NC4(CCCCC4)C3=O)cc2)cc1 | > 10000 | 4.1 | 3.3 | 19.6 | 0.2 | 63.6 | – | – | – | – | – | – | – | – | – |
